Reference: PubChem BioAssay (NCI)
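Results reflect a 48-hour exposure of cells in 96-well plates to compound at five concentrations. GI50: concentration for 50% inhibition of growth. TGI marks complete inhibition of growth.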

Experiments:
Test in all cases: growth of human tumour cells (NCI), 48 h
786-0 renal = system: 786-0 renal
A498 renal = system: A498 renal
A549 NSCLC = system: A549 NSCLC
ACHN renal = system: ACHN renal
BT-549 breast = system: BT-549 breast
CAKI-1 renal = system: CAKI-1 renal
COLO 205 colon = system: COLO 205 colon
DU-145 prostate = system: DU-145 prostate
EKVX NSCLC = system: EKVX NSCLC
HCT-116 colon = system: HCT-116 colon
HCT-15 colon = system: HCT-15 colon
HL-60(TB) leukemia = system: HL-60(TB) leukemia
HOP-62 NSCLC = system: HOP-62 NSCLC
HOP-92 NSCLC = system: HOP-92 NSCLC
HS 578T breast = system: HS 578T breast
HT29 colon = system: HT29 colon
IGROV1 ovarian = system: IGROV1 ovarian
K-562 leukemia = system: K-562 leukemia
KM12 colon = system: KM12 colon
LOX IMVI melanoma = system: LOX IMVI melanoma
M14 melanoma = system: M14 melanoma
MALME-3M melanoma = system: MALME-3M melanoma
MCF7 breast = system: MCF7 breast
MDA-MB-231 breast = system: MDA-MB-231 breast
MDA-MB-435 = system: MDA-MB-435
MOLT-4 leukemia = system: MOLT-4 leukemia
NCI-H226 lung = system: NCI-H226 lung
NCI-H23 lung = system: NCI-H23 lung
NCI-H460 lung = system: NCI-H460 lung
NCI-H522 lung = system: NCI-H522 lung
NCI/ADR-RES ovarian = system: NCI/ADR-RES ovarian
OVCAR-3 ovarian = system: OVCAR-3 ovarian
OVCAR-4 ovarian = system: OVCAR-4 ovarian
OVCAR-5 ovarian = system: OVCAR-5 ovarian
OVCAR-8 ovarian = system: OVCAR-8 ovarian
PC-3 prostate = system: PC-3 prostate
RPMI-8226 leukemia = system: RPMI-8226 leukemia
RXF 393 renal = system: RXF 393 renal
SF-268 CNS = system: SF-268 CNS
SF-295 CNS = system: SF-295 CNS
SF-539 CNS = system: SF-539 CNS
SK-MEL-2 melanoma = system: SK-MEL-2 melanoma
SK-MEL-28 melanoma = system: SK-MEL-28 melanoma
SK-MEL-5 melanoma = system: SK-MEL-5 melanoma
SK-OV-3 ovarian = system: SK-OV-3 ovarian
SN12C renal = system: SN12C renal
SNB-19 CNS = system: SNB-19 CNS
SNB-75 CNS = system: SNB-75 CNS
SR leukemia = system: SR leukemia
SW-620 colon = system: SW-620 colon
TK-10 renal = system: TK-10 renal
U251 CNS = system: U251 CNS
UACC-257 melanoma = system: UACC-257 melanoma
UACC-62 melanoma = system: UACC-62 melanoma
UO-31 renal = system: UO-31 renal
HCC-2998 colon = system: HCC-2998 colon
T-47D breast = system: T-47D breast
CCRF-CEM leukemia = system: CCRF-CEM leukemia

## CCOC1=C/C(=N\Nc2ccc([N+](=O)[O-])cc2)CCC1
786-0 renal
  TGI: > 100 µM
A498 renal
  TGI: > 100 µM
A549 NSCLC
  TGI: > 100 µM
ACHN renal
  TGI: 34.8 µM
BT-549 breast
  TGI: 43.8 µM
CAKI-1 renal
  TGI: > 100 µM
COLO 205 colon
  TGI: 51.3 µM
DU-145 prostate
  TGI: > 100 µM
EKVX NSCLC
  TGI: > 100 µM
HCT-116 colon
  TGI: > 100 µM
HCT-15 colon
  TGI: 57.3 µM
HL-60(TB) leukemia
  TGI: > 100 µM
HOP-62 NSCLC
  TGI: > 100 µM
HOP-92 NSCLC
  TGI: > 100 µM
HS 578T breast
  TGI: > 100 µM
HT29 colon
  TGI: 67.9 µM
IGROV1 ovarian
  TGI: 40.7 µM
K-562 leukemia
  TGI: > 100 µM
KM12 colon
  TGI: > 100 µM
LOX IMVI melanoma
  TGI: > 100 µM
M14 melanoma
  TGI: > 100 µM
MALME-3M melanoma
  TGI: > 100 µM
MCF7 breast
  TGI: > 100 µM
MDA-MB-231 breast
  TGI: 84.6 µM
MDA-MB-435
  TGI: > 100 µM
MOLT-4 leukemia
  TGI: > 100 µM
NCI-H226 lung
  TGI: > 100 µM
NCI-H23 lung
  TGI: 94.1 µM
NCI-H460 lung
  TGI: > 100 µM
NCI-H522 lung
  TGI: 23.4 µM
NCI/ADR-RES ovarian
  TGI: > 100 µM
OVCAR-3 ovarian
  TGI: > 100 µM
OVCAR-4 ovarian
  TGI: > 100 µM
OVCAR-5 ovarian
  TGI: > 100 µM
OVCAR-8 ovarian
  TGI: > 100 µM
PC-3 prostate
  TGI: > 100 µM
RPMI-8226 leukemia
  TGI: > 100 µM
RXF 393 renal
  TGI: 63.1 µM
SF-268 CNS
  TGI: 44.9 µM
SF-295 CNS
  TGI: > 100 µM
SF-539 CNS
  TGI: > 100 µM
SK-MEL-2 melanoma
  TGI: 58.1 µM
SK-MEL-28 melanoma
  TGI: 72.6 µM
SK-MEL-5 melanoma
  TGI: 73.3 µM
SK-OV-3 ovarian
  TGI: > 100 µM
SN12C renal
  TGI: > 100 µM
SNB-19 CNS
  TGI: > 100 µM
SNB-75 CNS
  TGI: 73.1 µM
SR leukemia
  TGI: > 100 µM
SW-620 colon
  TGI: > 100 µM
TK-10 renal
  TGI: > 100 µM
U251 CNS
  TGI: 54.1 µM
UACC-257 melanoma
  TGI: > 100 µM
UACC-62 melanoma
  TGI: 67.4 µM
UO-31 renal
  TGI: 35.1 µM

## Cc1c(C(=O)O)sc2nc[nH]c(=O)c12
786-0 renal
  TGI: > 100 µM
A549 NSCLC
  TGI: > 100 µM
ACHN renal
  TGI: > 100 µM
CAKI-1 renal
  TGI: > 100 µM
COLO 205 colon
  TGI: > 100 µM
DU-145 prostate
  TGI: > 100 µM
EKVX NSCLC
  TGI: > 100 µM
HCC-2998 colon
  TGI: > 100 µM
HCT-116 colon
  TGI: > 100 µM
HCT-15 colon
  TGI: > 100 µM
HL-60(TB) leukemia
  TGI: > 100 µM
HOP-62 NSCLC
  TGI: > 100 µM
HOP-92 NSCLC
  TGI: > 100 µM
HS 578T breast
  TGI: 79.5 µM
HT29 colon
  TGI: > 100 µM
IGROV1 ovarian
  TGI: > 100 µM
K-562 leukemia
  TGI: > 100 µM
KM12 colon
  TGI: > 100 µM
LOX IMVI melanoma
  TGI: > 100 µM
M14 melanoma
  TGI: > 100 µM
MALME-3M melanoma
  TGI: > 100 µM
MCF7 breast
  TGI: > 100 µM
MDA-MB-231 breast
  TGI: > 100 µM
MDA-MB-435
  TGI: > 100 µM
MOLT-4 leukemia
  TGI: > 100 µM
NCI-H226 lung
  TGI: > 100 µM
NCI-H23 lung
  TGI: > 100 µM
NCI-H460 lung
  TGI: > 100 µM
NCI-H522 lung
  TGI: > 100 µM
NCI/ADR-RES ovarian
  TGI: > 100 µM
OVCAR-3 ovarian
  TGI: > 100 µM
OVCAR-4 ovarian
  TGI: > 100 µM
OVCAR-5 ovarian
  TGI: > 100 µM
OVCAR-8 ovarian
  TGI: > 100 µM
PC-3 prostate
  TGI: > 100 µM
RPMI-8226 leukemia
  TGI: > 100 µM
RXF 393 renal
  TGI: > 100 µM
SF-268 CNS
  TGI: > 100 µM
SF-295 CNS
  TGI: > 100 µM
SF-539 CNS
  TGI: > 100 µM
SK-MEL-2 melanoma
  TGI: > 100 µM
SK-MEL-28 melanoma
  TGI: > 100 µM
SK-MEL-5 melanoma
  TGI: > 100 µM
SK-OV-3 ovarian
  TGI: > 100 µM
SN12C renal
  TGI: > 100 µM
SNB-19 CNS
  TGI: > 100 µM
SNB-75 CNS
  TGI: > 100 µM
SW-620 colon
  TGI: > 100 µM
T-47D breast
  TGI: > 100 µM
TK-10 renal
  TGI: > 100 µM
U251 CNS
  TGI: > 100 µM
UACC-257 melanoma
  TGI: > 100 µM
UACC-62 melanoma
  TGI: > 100 µM
UO-31 renal
  TGI: > 100 µM

## C=C(CN1CCc2ccccc2C1)c1ccc(CCCC(=O)Nc2ccccc2N)cc1
786-0 renal
  GI50: 12.1 µM
  TGI: 28.2 µM
A498 renal
  GI50: 12.6 µM
  TGI: 26.1 µM
A549 NSCLC
  GI50: 16.4 µM
  TGI: 58.8 µM
ACHN renal
  GI50: 25.9 µM
  TGI: > 100 µM
CAKI-1 renal
  GI50: 17.9 µM
  TGI: 82.5 µM
CCRF-CEM leukemia
  GI50: 3.06 µM
  TGI: > 100 µM
COLO 205 colon
  GI50: 17 µM
  TGI: 33.1 µM
DU-145 prostate
  GI50: 11.3 µM
  TGI: 30.4 µM
EKVX NSCLC
  GI50: 12 µM
  TGI: 47.1 µM
HCC-2998 colon
  GI50: 21.1 µM
  TGI: 43.2 µM
HCT-116 colon
  GI50: 12.8 µM
  TGI: 33.3 µM
HCT-15 colon
  GI50: 28 µM
  TGI: > 100 µM
HL-60(TB) leukemia
  GI50: 7.13 µM
  TGI: 31.3 µM
HOP-62 NSCLC
  GI50: 22.7 µM
  TGI: 75.2 µM
HS 578T breast
  GI50: 14 µM
  TGI: 43.4 µM
HT29 colon
  GI50: 13.1 µM
  TGI: 30.4 µM
K-562 leukemia
  GI50: 0.505 µM
  TGI: 25.3 µM
KM12 colon
  GI50: 11.1 µM
  TGI: 27.2 µM
LOX IMVI melanoma
  GI50: 9.15 µM
  TGI: 21.7 µM
M14 melanoma
  GI50: 15.8 µM
  TGI: 33 µM
MALME-3M melanoma
  GI50: 11.7 µM
  TGI: 25.7 µM
MCF7 breast
  GI50: 8.45 µM
  TGI: > 100 µM
MDA-MB-231 breast
  GI50: 10.2 µM
  TGI: 26.3 µM
MDA-MB-435
  GI50: 11.9 µM
  TGI: 26.4 µM
MOLT-4 leukemia
  GI50: 1.28 µM
  TGI: 15.3 µM
NCI-H226 lung
  GI50: 28.8 µM
  TGI: 94.6 µM
NCI-H23 lung
  GI50: 20.1 µM
  TGI: 48.6 µM
NCI-H460 lung
  GI50: > 100 µM
  TGI: > 100 µM
NCI-H522 lung
  GI50: 1.92 µM
  TGI: 7.15 µM
NCI/ADR-RES ovarian
  GI50: 17.4 µM
  TGI: 51.6 µM
OVCAR-3 ovarian
  GI50: 9.81 µM
  TGI: 22.2 µM
OVCAR-4 ovarian
  GI50: 14.5 µM
  TGI: 49.8 µM
OVCAR-5 ovarian
  GI50: 26.5 µM
  TGI: 80.2 µM
OVCAR-8 ovarian
  GI50: 18.4 µM
  TGI: 62.8 µM
PC-3 prostate
  GI50: 10.5 µM
  TGI: 30.3 µM
RPMI-8226 leukemia
  GI50: 5.37 µM
  TGI: 22.2 µM
RXF 393 renal
  GI50: 17.1 µM
  TGI: 35.7 µM
SF-268 CNS
  GI50: > 100 µM
  TGI: > 100 µM
SF-295 CNS
  GI50: 14.6 µM
  TGI: 39.9 µM
SF-539 CNS
  GI50: 11.4 µM
  TGI: 24 µM
SK-MEL-2 melanoma
  GI50: 14.5 µM
  TGI: 31.8 µM
SK-MEL-28 melanoma
  GI50: 15.7 µM
  TGI: 29.7 µM
SK-MEL-5 melanoma
  GI50: 5.01 µM
  TGI: 17.3 µM
SK-OV-3 ovarian
  GI50: 19.4 µM
  TGI: 52.9 µM
SN12C renal
  GI50: 13 µM
  TGI: 28.4 µM
SNB-19 CNS
  GI50: 23.2 µM
  TGI: > 100 µM
SNB-75 CNS
  GI50: 3.33 µM
  TGI: 27.7 µM
SW-620 colon
  GI50: 15.6 µM
  TGI: 32.1 µM
T-47D breast
  GI50: 11.2 µM
  TGI: 59.3 µM
TK-10 renal
  GI50: 41.3 µM
  TGI: > 100 µM
U251 CNS
  GI50: 18.4 µM
  TGI: 44.5 µM
UACC-257 melanoma
  GI50: 17.4 µM
  TGI: 42 µM
UACC-62 melanoma
  GI50: 15.1 µM
  TGI: 30.8 µM
UO-31 renal
  GI50: 2.7 µM
  TGI: 17.7 µM
